Key:
Format in all cases: in vivo
[1] = tested on: wheat (Triticum aestivum); assay: Test C preemergence, wheat; details: 0 is no effect, 100 is complete control
Description: (§1) Seeds of plant species selected from blackgrass (Alopecurus myosuroides), corn (Zea mays), foxtail, giant (giant foxtail, Setaria faberi), goosegrass (Eleusine indica), kochia (Bassia scoparia), oat, wild (wild oat, Avena fatua), pigweed, palmer (palmer amaranth, Amaranthus palmeri), ragweed (common ragweed, Ambrosia artemisiifolia), ryegrass, Italian (Italian ryegrass, Lolium multiflorum), soybean (Glycine max) and wheat (Triticum aestivum) were planted into a blend of loam soil and sand and treated preemergence with a directed soil spray using test chemicals formulated in a non-phytotoxic solvent mixture which included a surfactant.
(§2) At the same time, plants selected from these crop and weed species and also galium (catchweed bedstraw, Galium aparine) and horseweed (Erigeron canadensis) were planted in pots containing the same blend of loam soil and sand and treated with postemergence applications of test chemicals formulated in the same manner. Plants ranged in height from 2 to 10 cm and were in the one- to two-leaf stage for the postemergence treatment. Treated plants and untreated controls were maintained in a greenhouse for 10 or 12 days, after which time all treated plants were compared to untreated controls and visually evaluated for injury. Plant response ratings, summarized in Table A, are based on a 0 to 100 scale where 0 is no effect and 100 is complete control. A dash (-) response means no test result.

[2] = tested on: pigweed, palmer (palmer amaranth, Amaranthus palmeri); assay: Test C preemergence, palmer amaranth; details: 0 is no effect, 100 is complete control
Description: as §1, §2

[3] = tested on: oat, wild (wild oat, Avena fatua); assay: Test C postemergence, wild oat; details: for Oat, Wild plant response rating: visual injury, 0 to 100 scale (0 no effect, 100 complete control); for Plant response rating (0 to 100 scale), Oat, Wild: 0 is no effect, 100 is complete control
Description: as §1, §2

[4] = tested on: kochia (Bassia scoparia); assay: Test C preemergence, kochia; details: 0 is no effect, 100 is complete control
Description: as §1, §2

[5] = tested on: goosegrass (Eleusine indica); assay: Test C postemergence, goosegrass; details: for Goosegrass plant response rating: visual injury, 0 to 100 scale (0 no effect, 100 complete control); for Plant response rating (0 to 100 scale), Goosegrass: 0 is no effect, 100 is complete control
Description: as §1, §2

[6] = tested on: ragweed (common ragweed, Ambrosia artemisiifolia); assay: Test C postemergence, ragweed; details: for Ragweed plant response rating: visual injury, 0 to 100 scale (0 no effect, 100 complete control)
Description: as §1, §2

[7] = tested on: foxtail, giant (giant foxtail, Setaria faberi); assay: Test C postemergence, giant foxtail; details: for Foxtail, Giant plant response rating: visual injury, 0 to 100 scale (0 no effect, 100 complete control); for Plant response rating (0 to 100 scale), Foxtail, Giant: 0 is no effect, 100 is complete control
Description: as §1, §2

[8] = tested on: goosegrass (Eleusine indica); assay: Test C preemergence, goosegrass; details: 0 is no effect, 100 is complete control
Description: as §1, §2

| Structure (SMILES) | Plant response rating (0 to 100 scale), Wheat ([1]; 31 g ai/ha Preemergence) | Plant response rating (0 to 100 scale), Wheat ([1]; 125 g ai/ha Preemergence) | Plant response rating (0 to 100 scale), Pigweed, Palmer ([2]; 31 g ai/ha Preemergence) | Plant response rating (0 to 100 scale), Pigweed, Palmer ([2]; 125 g ai/ha Preemergence) | Oat, Wild plant response rating ([3]; 31 g ai/ha Postemergence) | Plant response rating (0 to 100 scale), Oat, Wild ([3]; 125 g ai/ha Postemergence) | Plant response rating (0 to 100 scale), Kochia ([4]; 31 g ai/ha Preemergence) | Plant response rating (0 to 100 scale), Kochia ([4]; 125 g ai/ha Preemergence) | Goosegrass plant response rating ([5]; 31 g ai/ha Postemergence) | Plant response rating (0 to 100 scale), Goosegrass ([5]; 125 g ai/ha Postemergence) | Ragweed plant response rating ([6]; 31 g ai/ha Postemergence) | Ragweed plant response rating ([6]; 125 g ai/ha Postemergence) | Foxtail, Giant plant response rating ([7]; 31 g ai/ha Postemergence) | Plant response rating (0 to 100 scale), Foxtail, Giant ([7]; 125 g ai/ha Postemergence) | Plant response rating (0 to 100 scale), Goosegrass ([8]; 31 g ai/ha Preemergence) | Plant response rating (0 to 100 scale), Goosegrass ([8]; 125 g ai/ha Preemergence) | Plant response rating (0 to 100 scale), Ragweed ([6]; 125 g ai/ha Postemergence, 0 is no effect, 100 is complete control) | Oat, Wild plant response rating ([3]; 125 g ai/ha Postemergence) | Goosegrass plant response rating ([5]; 125 g ai/ha Postemergence) | Foxtail, Giant plant response rating ([7]; 125 g ai/ha Postemergence) |
| --- | --- | --- | --- | --- | --- | --- | --- | --- | --- | --- | --- | --- | --- | --- | --- | --- | --- | --- | --- | --- |
| Cc1c(N2CCCC(OC3CCC3)C2=O)cc(N(COC(=O)C(C)(C)C)S(=O)(=O)C(F)(F)F)c(C)c1F (stereo not drawn) [Compound 39] | 0 | 0 | 0 | 40 | 0 | 20 | 20 | 60 | 0 | 30 | 30 | 80 | 0 | 10 | 10 | 60 |  |  |  |  |
| COC(=O)N(c1cc(N2CCC(OC3CC3)C2=O)c(C)cc1C)S(=O)(=O)C(F)(F)F (stereo not drawn) [Compound 16] | 0 | 0 | 0 | 0 | 0 | 0 | 0 | 0 | 0 | 0 | 80 |  | 0 | 0 | 0 | 0 | 90 |  |  |  |
| Cc1cc(Cl)c(N(COC(=O)C(C)(C)C)S(=O)(=O)C(F)(F)F)cc1N1CCC(OC2CC2)C1=O (stereo not drawn) [Compound 33] | 10 | 40 | 70 | 80 | 30 | 70 | 100 | 100 | 60 | 90 | 90 | 90 | 50 | 90 | 90 | 100 |  |  |  |  |
| Cc1cc(C)c(N2CCC(OCc3ccccc3)C2=O)cc1NS(=O)(=O)C(F)(F)F (stereo not drawn) [Compound 61] | 30 | 100 | 100 | 100 | 20 |  | 90 | 100 | 40 |  | 50 | 80 | 20 |  | 100 | 100 |  | 80 | 90 | 50 |
| Cc1cc(C)c(N2CCC(OCC3CCCC3)C2=O)cc1NS(=O)(=O)C(F)(F)F (stereo not drawn) [Compound 57] | 20 | 80 | 100 | 100 | 10 |  | 60 | 80 | 70 |  | 40 | 60 | 60 |  | 90 | 100 |  | 10 | 90 | 70 |
| C#CC(C)OC1CCN(c2cc(NS(=O)(=O)C(F)(F)F)c(C)cc2C)C1=O (stereo not drawn) [Compound 58] | 90 | 100 | 100 | 100 | 60 |  | 80 | 90 | 100 |  | 70 | 90 | 60 |  | 100 | 100 |  | 90 | 100 | 90 |

Source: patent US20240158348A1, “HERBICIDAL CYCLIC AMIDES N-SUBSTITUTED WITH A HALOALKYLSULFONYLANILIDE GROUP” (FMC Corporation, priority 2021, published 2024)
